Literature values as cited in patent US10300017B2, “Method and composition for treating cystitis” (Nanologix Research, Inc., priority 2012, dated 2019).

Tests used:
interstitial cystitis = conditions: 20 patients heparin 40,000 units, 20 patients 100 mg Elmiron, 80 mg lidocaine, 3 cc sodium bicarb
[1] = oral

Row | Substance | response to therapy (symptom relief), comparison of the two intravesical solutions (interstitial cystitis) | fraction absorbed that reaches the circulation (administered orally) [%] | fraction of the administered dose recovered as intact drug in urine (mean) (oral dose) [%] | mean of an oral dose excreted in the urine (oral dose, mostly as desulfated and depolymerized metabolites) [%] | systemic side effects [1]
1 | heparin | no significant difference between the two solutions |  |  |  | 
2 | pentosan polysulfate [Elmiron®] | no significant difference between the two solutions | 6 | 0.14 | 6 | hair loss, GI intolerance, headache, rash, sleep disturbance, and vertigo
